This passage reports EC50 and Activity results from ChEMBL document CHEMBL3217503, “Antivascular and anticancer activity of dihalogenated A-ring analogues of combretastatin A-4” (Medchemcomm, 2010).

In one data set the test system is K562. Put plainly: Cytotoxicity against human K562 cells. Format: functional, cell-based.
Data set [1] deals with HeLa. In words: Antimitotic activity in human HeLa cells assessed as depolymerisation of interphase microtubule network at 0.1 to 1 uM after 16 hrs by Hoechst staining-based confocal microscopy. The class given is functional, cell-based.
In data set [2] the test system is HeLa. In words: Antimitotic activity in human HeLa cells assessed as membrane blebbing at 0.1 to 1 uM after 16 hrs by Hoechst staining-based confocal microscopy. Format: functional, cell-based.
Data set [3] deals with HeLa. Put plainly: Antimitotic activity in human HeLa cells assessed as redistribution of microtubules around nuclear envelope of cells at 100 nM after 16 hrs by Hoechst staining-based confocal microscopy. Format: functional, cell-based.
For data set [4], the system named is HeLa. Put plainly: Antimitotic activity in human HeLa cells assessed as disproportionate mitotic cells at 10 nM after 16 hrs by Hoechst staining-based confocal microscopy. Format: functional, cell-based.
Data set [5] deals with SK-OV-3. In words: Antimitotic activity in human SKOV3 cells at 1 to 100 nM after 16 hrs by Hoechst staining-based confocal microscopy. Format: functional, cell-based.
The test system of data set [6] is SK-OV-3. In words: Antimitotic activity in taxol-resistant human SKOV3 cells at 1 to 100 nM after 16 hrs by Hoechst staining-based confocal microscopy. The class given is functional, cell-based.
Data set [7] deals with HeLa. Put plainly: Antimitotic activity in human HeLa cells expressing GFP-tagged tubulin assessed as membrane blebbing during interphase at 10 to 100 nM after 31 to 34 mins by fluorescence-based spinning-disk confocal microscopy. The class given is functional, cell-based.
In data set [8] the test system is HeLa. Put plainly: Antimitotic activity in human HeLa cells expressing GFP-tagged tubulin assessed as disappearance of mitotic spindle during metaphase at 10 to 100 nM after 21 to 36 mins by fluorescence-based spinning-disk confocal microscopy. Format: functional, cell-based.
In data set [9] the test system is HeLa. Put plainly: Antimitotic activity in human HeLa cells expressing GFP-tagged tubulin assessed as collapse of mitotic spindle during anaphase at 10 nM after 31 mins by fluorescence-based spinning-disk confocal microscopy. Format: functional, cell-based.
Data set [10] deals with HeLa. In words: Antimitotic activity in human HeLa cells expressing GFP-tagged tubulin assessed as membrane blebbing during interphase at 10 nM after 51 mins by fluorescence-based spinning-disk confocal microscopy. Format: functional, cell-based.
Data set [11] deals with HUVEC. In words: Antivascular activity in growth factor-induced HUVEC after 24 hrs xCELLigence analysis. Format: functional, cell-based. The note with it: Homo sapiens.
Data set [12] concerns HUVEC. Put plainly: Antivascular activity in growth factor-induced HUVEC after 45 hrs xCELLigence analysis. The class given is functional, cell-based. The note with it: Homo sapiens.
The subject of data set [13] is HUVEC. In words: Antiproliferative activity against growth factor-induced HUVEC assessed as growth inhibition after 48 hrs by MTS assay. The class given is functional, cell-based. Conditions: Homo sapiens. On the technique in general: Tetrazolium assays rely on reduction of a dye to a coloured formazan, in cell work by metabolically active cells.
In data set [14] the test system is SK-OV-3. Put plainly: Cytotoxicity against human SKOV3 cells assessed as cell viability after 48 hrs by MTS assay. Format: functional, cell-based. Conditions: SK-OV-3, 48 h.
For data set [15], the system named is HeLa. In words: Cytotoxicity against human HeLa cells assessed as cell viability after 48 hrs by MTS assay. The class given is functional, cell-based.
The test system of data set [16] is SK-OV-3. In words: Cytotoxicity against taxol-resistant human SKOV3 cells assessed as cell viability after 48 hrs by MTS assay. The note with it: SK-OV-3, 48 h. The class given is functional, cell-based.
Another data set concerns PBMC. In words: Cytotoxicity in human PBMC assessed as cell viability up to 10 uM after 48 hrs by MTS assay. Format: cell-based.
The test system of data set [17] is SK-OV-3. In words: Cell cycle arrest in human SKOV3 cells assessed as accumulation at G1 phase at 5 nM after 24 hrs by propidium iodide staining-based flow cytometry (reference value: 54.4%). The class given is functional. Background: Flow cytometry measures light scatter and fluorescence of single cells or particles in a stream.
Data set [18] has as its system SK-OV-3. Put plainly: Cell cycle arrest in human SKOV3 cells assessed as accumulation at S phase at 5 nM after 24 hrs by propidium iodide staining-based flow cytometry (reference value: 31.2%). Format: functional.
In data set [19] the test system is SK-OV-3. Put plainly: Cell cycle arrest in human SKOV3 cells assessed as accumulation at G2/M phase at 5 nM after 24 hrs by propidium iodide staining-based flow cytometry (reference value: 13.6%). Format: functional.
The subject of data set [20] is SK-OV-3. In words: Cell cycle arrest in human SKOV3 cells assessed as accumulation at G2/M phase at 200 nM after 24 hrs by propidium iodide staining-based flow cytometry (reference value: 13.6%). The class given is functional.
For data set [21], the system named is HeLa. In words: Antimitotic activity in human HeLa cells assessed as depolymerisation of interphase microtubule network at 10 to 100 nM after 16 hrs by Hoechst staining-based confocal microscopy. The class given is functional, cell-based.
Data set [22] concerns HeLa. In words: Antimitotic activity in human HeLa cells assessed as change in interphase microtubule network at 1 nM after 16 hrs by Hoechst staining-based confocal microscopy. Format: functional, cell-based.

Active and inactive are the calls of the source. The rule behind the calls is not given here.

As usually defined, the EC50 is the concentration that produces a half-maximal response. The compound `COc1ccc(/C=C\c2cc(C)c(C)c(C)c2)cc1O` registered an EC50 in the data set with K562 of 20 nM.
For the compound `COc1ccc(/C=C\c2cc(Br)c(OC)c(Br)c2)cc1O`, the result in the data set with HeLa [1], in the data set on HeLa [2], with HeLa [3], in the data set on HeLa [4], in the data set with SK-OV-3 [5] and in the data set with SK-OV-3 [6] was Active. Also, the outcome in the data set with HeLa [7], with HeLa [8], in the data set with HeLa [9] and with HeLa [10] was Active. Moreover, the EC50 is 2.2 nM with HUVEC [11]; 1.1 nM with HUVEC [12]; 0.2 nM in the data set with HUVEC [13]; 1.7 nM with SK-OV-3 [14]; 6.7 nM in the data set with HeLa [15]; 1.1 nM in the data set on SK-OV-3 [16]. For the same compound, the Activity entry in the data set with PBMC is recorded as “Non-toxic”; with SK-OV-3 [17] it was 25.7%; with SK-OV-3 [18], 21%; in the data set with SK-OV-3 [19], 51.5%.
As to `COc1ccc(/C=C\c2ccccc2)cc1O`, the EC50 in the data set on K562 came out at 500 nM.
In the case of `COc1ccc(/C=C\c2cc(F)c(OC)c(F)c2)cc1O`, the EC50 with HUVEC [11] was determined as 193 nM; in the data set on HUVEC [12], 224 nM. Further, the Activity in the data set with SK-OV-3 [20] is 73.7%.
For the compound `COc1ccc(/C=C\c2cc(OC)c(OC)c(OC)c2)cc1O` [COMBRETASTATIN A4], the outcome in the data set with HeLa [21] was Active. For the same compound, the result in the data set with HeLa [22] was inactive. The EC50 in the data set on K562 is 1 nM; in the data set with HUVEC [11] it was 1.9 nM; in the data set with HUVEC [12] it was 0.9 nM; in the data set with HUVEC [13] it was 3.2 nM; in the data set on SK-OV-3 [14], 1.2 nM; in the data set with HeLa [15], 1.4 nM. Moreover, the EC50 in the data set on SK-OV-3 [16] worked out at 3.1 nM. Besides, the Activity result was “Non-toxic” with PBMC, 40.1% with SK-OV-3 [17], 23.1% in the data set with SK-OV-3 [18] and 30.5% with SK-OV-3 [19].
On to `COc1ccc(/C=C\c2cc(Cl)c(OC)c(Cl)c2)cc1O`, for which the EC50 in the data set with HUVEC [11] stood at 2.6 nM; in the data set on HUVEC [12] it was 2.3 nM. In addition, the Activity is recorded as 43.7% with SK-OV-3 [17], 18.6% in the data set on SK-OV-3 [18] and 32.2% with SK-OV-3 [19].
For `COc1ccc(/C=C\c2cc(I)c(OC)c(I)c2)cc1O`, in that order: 0.9 nM, 0.9 nM, 1.3%, 12.9% and 83.6%.
In the data set with K562, `COc1ccc(/C=C\c2ccc(C)c(C)c2)cc1O` displayed an EC50 of 70 nM.
